Source: PubChem BioAssay AID493092 (Sanford-Burnham Center for Chemical Genomics, 2011)
Active and inactive are the calls of the source.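 How the source made its calls: active means averaged IC50 for reducing per-cell lipid droplet stain intensity under a set limit; inactive means the rest.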

What follows are compounds tested on AML12 mouse hepatocytes, BODIPY lipid droplet imaging (assay: inhibitors of hepatocyte lipid droplet formation, SAR follow-up, imaging, AML12 mouse hepatocytes, BODIPY staining (AID 493092)). Details: cells fed 100 µM oleate overnight.
`CCOc1ccc(CCNC(=O)COC(=O)c2cc(OC)c(OC)c(OC)c2)cc1OCC` gave an IC50 of 103 nM.
Work on `COc1cc(NC(=O)c2cccs2)c(OC)cc1NC(=O)CCC(=O)Nc1cccc2ncccc12` yielded an IC50 of 4500 nM.
`CCOc1ccc(C(=O)OCC(=O)Nc2cc(C)on2)cc1OCC` was tested, and the IC50 was 864 nM.
`CCOc1cc2c(cc1OCC)CN(C(=O)CNC(=O)c1ccc3ccccc3c1)CC2` was tested, and the IC50 was 311 nM.
For `CCOc1ccccc1NC(=O)CCCNC(=O)Cn1cnc2sc(C)c(C)c2c1=O`, the IC50 was 8670 nM (inactive).
`O=C(CNC(=O)c1cccc(Br)c1)NCCCc1ccccc1` was tested, and the IC50 was > 32000 nM (inactive).
Work on `Cc1cc(C(=O)OC(C)C(=O)Nc2nc(-c3ccccc3)cs2)c(C)o1` (stereo not drawn) yielded an IC50 of 428 nM.
Compound `CCOc1ccc(CCNC(=O)CCc2nc(-c3ccc(OC)cc3)no2)cc1OCC` has an IC50 of 302 nM.
